Entries after “also recorded” stand apart in the source; their conditions may differ. Read-outs that look alike come from different tables or passages of the source.
Legend:
[1] = Hygroscopicity evaluation at about 75% RH (NaCl saturated aqueous solution), visual powder property and polarized light microscopy; type: physicochemical; details: for hygroscopicity compared to NR—Cl crystalline forms: compared to NR—Cl-Form A and NR—Cl-Form B; for powder state for more than one month: environment of 75% RH; for powder property after 1 day / powder property after 7 days / powder property and crystallinity after 30 days: ~75% RH, room temperature (~22° C.)
From the text: In addition to the thermal stability, the hygroscopicity, the tendency of a solid substance to absorb moisture from the surrounding atmosphere, is another important physicochemical property that needs to be considered during pharmaceutical development, because, like the heat, the moisture may also damage the drug product at a specific storage condition during the period of the drug shelf life. One of the key disadvantages of the nicotinamide riboside chloride products in the market is its poor hygroscopicity. As reported previously, all the three crystalline forms of the nicotinamide riboside chloride deliquesce at the relative humidity (RH) of 70%-80%. As a result, the nicotinamide riboside chloride requires to store in a dry place to avoid absorbing moisture from the air. […] The hygroscopicity assessment can be achieved by placing compounds in a specified relative humidity environment, e.g., ˜75% RH environment established with the sodium chloride saturated aqueous solution.
A Kerr SureTight™ container of 8 oz Clear Glass Wide Mouth Mason Jars with Silver Vacuum Seal Lid was used to secure the closure. An 8 ml opened vial containing sodium chloride (NaCl) saturated aqueous solution (about 75.5% RH at 20° C. and about 75.3% at 25° C. from www.engineeringtoolbox.com/salt-humidity-d_1887.html) was placed in the SureTight container. The 4 ml of opened vials containing about 5 mg of [NR—Cl]2[RSV] cocrystals or NR—Cl crystalline forms were also placed in the same container with the vial of the NaCl saturated aqueous solution. The container was sealed with the seal lid and placed in a room temperature condition (˜22° C.). The powder property was visually observed directly or during shaking the vial. Crystallinity was assessed under a polarized light microscope.

[2] = Thermal stability by differential scanning calorimetry (DSC); type: physicochemical; details: for heat of fusion: DSC; for melting/decomposition endotherm peak: heating rate 10° C./minute
From the text: Thermal stability is the stability of a molecule at elevated temperatures, and a molecule with more thermal stability has more resistance to decomposition at elevated temperatures. Thermal stability of a compound is one of the most important pharmaceutical properties that requires to be considered during developing a pharmaceutical or nutraceutical product. […] Differential Scanning calorimetry (DSC) is an analysis technique by measuring the heat change associated with the molecule's thermal events when heated at a constant rate. The temperature and its enthalpy change (usually the heat of fusion) at a specific thermal event recorded from DSC technique could be used to evaluate the thermal stability of an organic molecule directly. […] It is desirable to identify a new crystalline form with a higher melting/decomposition temperature and/or a larger heat of fusion to improve the thermal stability of the nicotinamide riboside drug substance.
DSC analysis was performed on samples prepared according to standard methods using a Q SERIES™ Q2500 DSC calorimeter available from TA INSTRUMENTS® (New Castle, Delaware). A sample (approximately 2 mg) was weighed into an aluminum sample pan and transferred to the DSC. The instrument was purged with nitrogen at 50 mL/min and data collected between 22° C. and 300° C., using a dynamic heating rate of 10° C./minute. Thermal data was analyzed using standard software, e.g., TRIOS from TA INSTRUMENTS®.

[3] = Chemical decomposition in alcohol suspension; type: physicochemical
From the text: Reaction crystallization temperatures and times depend upon targeted crystalline form of the cocrystal of a salt that is to be crystallized, the concentration of the salt and coformer in solution, and the solvent system. It should be noted that the elevated temperature or the long reaction time should be avoided to reduce the possibility of chemical decomposition for the […]. […] Even in room temperature, the nicotinamide riboside chloride starts to decompose after stirring in the alcohol suspension for more than 3 days. The preferred reaction time is less than 24 hours with reaction temperature at around room temperature.

[4] = type: physicochemical
From the text: Various solvents are selected based on solubility of starting materials and crystallization methods disclosed herein. […] These differences in solubilities also impact the ratio of the two starting materials. In the disclosed methods to prepare […], a ratio between the nicotinamide riboside chloride salt and resveratrol cofomer from about 2:1 to about 2:2 to prepare [NR—Cl]2[RSV] with a NR—Cl/RSV molar ratio of 2:1.

[5] = NR—Cl crystalline forms, previously identified; cited from earlier work

| Molecule | hygroscopicity compared to NR—Cl crystalline forms [1] | powder state for more than one month [1] | powder property after 1 day [1] | powder property after 7 days [1] | powder property and crystallinity after 30 days [1] | heat of fusion [2] | melting/decomposition endotherm peak [2] | solubility in EtOH [4] | solubility in IPA [4] | solubility in MeOH [4] | solubility in water [4] | heat of fusion [5] | melting/decomposing temperature [5] | other results |
| --- | --- | --- | --- | --- | --- | --- | --- | --- | --- | --- | --- | --- | --- | --- |
| resveratrol cocrystal of nicotinamide riboside chloride [[NR—Cl]2[RSV]-Form B] | better hygroscopicity | retain as flowable crystalline powders | flowable powders | flowable powders | flowable crystalline powders | 97 J/g | about 127 °C | – | – | – | – | – | – | – |
| NC(=O)c1ccc[n+]([C@@H]2O[C@H](CO)[C@@H](O)[C@H]2O)c1.[Cl-] [nicotinamide riboside chloride] | – | – | – | – | – | – | – | poorly soluble | poorly soluble | soluble | soluble | – | – | time within which decomposition occurs in alcohol suspension ([3]; elevated temperature above 50° C.): ≤ 1 h; stirring time after which decomposition starts in alcohol suspension ([3]; room temperature): more than 3 days |
| NC(=O)c1ccc[n+]([C@@H]2O[C@H](CO)[C@@H](O)[C@H]2O)c1.[Cl-] [NR—Cl-Form A, nicotinamide riboside chloride] | – | – | deliquesced; also recorded: became sticky and could not flow freely | deliquesced | glass-like liquids (amorphous materials) | – | – | – | – | – | – | 58 J/g | 119 °C | – |
| resveratrol cocrystal of nicotinamide riboside chloride [[NR—Cl]2[RSV]-Form A] | better hygroscopicity | retain as flowable crystalline powders | flowable powders | flowable powders | flowable crystalline powders | 100 J/g | about 128 °C | – | – | – | – | – | – | thermal stability compared to NR—Cl crystalline forms ([2]; from melting/decomposition temperature and heat of fusion): better thermal stability |
| NC(=O)c1ccc[n+]([C@@H]2O[C@H](CO)[C@@H](O)[C@H]2O)c1.[Cl-] [NR—Cl-Form B, nicotinamide riboside chloride] | – | – | – | – | glass-like liquids (amorphous materials) | – | – | – | – | – | – | 69 J/g | 123 °C | – |
| Oc1ccc(/C=C/c2cc(O)cc(O)c2)cc1 [resveratrol, 3,5,4′-trihydroxy-trans-stilbene] | – | – | – | – | – | – | – | soluble | soluble | soluble | poorly soluble | – | – | – |

— US20250026777A1, “COCRYSTALS OF NICOTINAMIDE RIBOSIDE SALTS, CRYSTALLINE FORMS, METHODS OF PREPARATION, AND APPLICATIONS THEREOF” (Beiture LLP, priority 2023, published 2025)
